Results on three molecules are retold here after patent publication US20110060028A1, “COMBINATION THERAPY” (UNIVERSITY OF YORK, priority 2007, published 2011).

d = 2'-deoxy (DNA)

Holding throughout (type): cell-based, human
The subject of series [1] is SIRT1 mRNA. As to the kind of experiment: Quantitative RT-PCR of SIRT1 mRNA. Conditions: for SIRT1 mRNA estimated t1/2: following administration of 5-FU. How it is done: (§1) Epithelial cancer cell lines RKO, LoVo, DLD-1, HT29, U2OS, SAOS-2, MCF7, HTB-126, HT-1080 and SiHa were obtained from ATCC. Isogenic colorectal carcinoma cell lines HCT116 p53+/+ and HCT116 p53−/− were a kind gift of Bert Vogelstein. Non-cancer cells were normal diploid fibroblasts (NDF) and ARPE-19 immortalised retinal epithelial cells (ATCC), and normal human embryonic keratinocytes (NHEK, Invitrogen). Cells were cultured according to the supplier's protocols. siRNA sequences, transfection protocols and target validations were as described (Ref. 27 and Methods). For drug treatments, cells were treated 48 hours post-plating with final concentration of 5-FU (375 OM) and uridine (425 OM) as indicated and harvested 24 h later. For combined transfection/drug treatment, drugs were applied 24 h post-transfection and cells harvested 24 h later. For time course analyses cells were harvested at indicated time points post-treatment.
Cellular mRNAs were extracted for quantitative RT-PCR as previously described^27. Primers and thermal cycling conditions were as described^27 (Methods); quantifications were performed in triplicate.
(§2) Cells for transfection and/or drug treatment were plated at a density of 6×10^4 (ARPE-19) or 1.4×10^5 (HCT116) per well in 6-well plates. For the experiment in FIG. 3a, ARPE-19 cells were plated at a density of 4×10^4 per well. Transfections were performed 24 hours post-plating in Opti-MEM (Gibco) using Oligofectamine (Invitrogen) according to the manufacturer's instructions. Chemically synthesized, HPLC-purified siRNAs were obtained from Qiagen or Dharmacon. SIRT1 siRNA sequence has been described^27. JNK1 siRNA sequences were: Sense 5′-CUCCACCACCAAAGAUCCC(dTdT)-3′, antisense 5′-GGGAUCUUUGGUGGUGGAG(dTdT)-3′. JNK2 siRNA sequences were: Sense 5′-GAGCUGGUGAAAGGUUGUG(dTdT)-3′, antisense 5′-CACAACCUUU CACCAGCUC(dTdT)-3′. Specificities of SIRT1 siRNA, JNK1 sIRNA and JNK2 siRNA have been validated previously¢ (Ahmed and Milner, in submission). Cells were harvested for analysis 48 h post-transfection, except where indicated otherwise. For drug treatment, drugs were applied by complete media replacement 48 h post-plating at final concentration 375 μM (5-FU) or 425 μM (uridine). Cells were harvested for analysis 24h following application of drugs, or at the indicated timepoints for time-course analysis. For combined transfection/drug experiments, drugs were applied approximately 20 hours post-transfection. Cells from combined transfection/drug experiments were harvested for analysis after 24 hours of drug exposure (˜48 hours post-transfection).
Relative mRNA levels were quantitated by realtime RT-PCR. […] SIRT1 primers 5′-[…]-3′ and 5′-[…]-3′ were used in the thermal cycle: 50° C. for 30 minutes, 94° C. for 15 minutes, followed by 35 cycles of 94° C. for 30 seconds, 55° C. for 30 seconds, 72° C. for 30 seconds, then 75° C. for 15 seconds before the plate was read. JNK1 primers 5′-[…]-3′ and 5′-[…]-3′ were used in the thermal cycle: 50° C. for 30 minutes, 94° C. for 15 minutes, followed by 35 cycles of 94° C. for 30 seconds, 57° C. for 30 seconds, 72° C. for 30 seconds, then 75° C. for 15 seconds before the plate was read. JNK2 primers 5′-[…]-3′ and 5′-[…]-3′ were used in the thermal cycle: 50° C. for 30 minutes, 94° C. for 15 minutes, followed by 35 cycles of 94° C. for 30 seconds, 55° C. for 30 seconds, 72° C. for 30 seconds, then 75° C. for 15 seconds before the plate was read. All RT-PCR quantifications were performed in triplicate.

The test system of series [2] is laminA/C and GAPDH mRNAs. As to the kind of experiment: Quantitative RT-PCR of laminA/C and GAPDH mRNAs. Conditions: 5-FU for 24 h. How it is done:
Epithelial cancer cell lines RKO, LoVo, DLD-1, HT29, U2OS, SAOS-2, MCF7, HTB-126, HT-1080 and SiHa were obtained from ATCC. Isogenic colorectal carcinoma cell lines HCT116 p53+/+ and HCT116 p53−/− were a kind gift of Bert Vogelstein. Non-cancer cells were normal diploid fibroblasts (NDF) and ARPE-19 immortalised retinal epithelial cells (ATCC), and normal human embryonic keratinocytes (NHEK, Invitrogen). Cells were cultured according to the supplier's protocols. siRNA sequences, transfection protocols and target validations were as described (Ref. 27 and Methods). […]
Cellular mRNAs were extracted for quantitative RT-PCR as previously described^27. Primers and thermal cycling conditions were as described^27 (Methods); quantifications were performed in triplicate. […]
Relative mRNA levels were quantitated by realtime RT-PCR. […] SIRT1 primers 5′-[…]-3′ and 5′-[…]-3′ were used in the thermal cycle: 50° C. for 30 minutes, 94° C. for 15 minutes, followed by 35 cycles of 94° C. for 30 seconds, 55° C. for 30 seconds, 72° C. for 30 seconds, then 75° C. for 15 seconds before the plate was read. JNK1 primers 5′-[…]-3′ and 5′-[…]-3′ were used in the thermal cycle: 50° C. for 30 minutes, 94° C. for 15 minutes, followed by 35 cycles of 94° C. for 30 seconds, 57° C. for 30 seconds, 72° C. for 30 seconds, then 75° C. for 15 seconds before the plate was read. […]

The subject of series [3] is SIRT1. Put plainly: Immunoblotting of total SIRT1, SIRT1 S27P and SIRT1 S47P. The method, then:
as §1
(§3) Cells were prepared as described (Methods). For immunoblotting equivalent numbers of cells, or equivalent amounts of protein, were loaded in each lane. Antibodies were: Anti-SIRT1 (H-300, Santa Cruz), anti-phosphoserine27-SIRT1 (#2327, Cell Signaling), anti-phosphoserine47-SIRT1 (#2314, Cell Signaling), anti-actin (MAB1501, Chemicon), anti-p53 (00-1, Santa Cruz), anti-acetylated-p53-lysine382 (#2525, Cell Signaling), anti-JNK1 (F-3, Santa Cruz), anti-JNK2 (#4672, Cell Signaling). Visualisation of bound antibodies was by ECL, with quantitation by densitometry of signals within the linear range.
as §2
For preparation of total protein lysates, cell counts or protein assay was performed, with the method chosen consistent within each experiment. Cells were lysed in lysis buffer IPAMN (10 mM TRIS base pH 8.0, 140 mM NaCl, 2 mM CaCl2, 0.5% NP-40, 5 U ml^−1 micrococcal nuclease) for 3 minutes at room temperature followed by addition of 0.25× volumes of 6×SDS-PAGE sample buffer and brief heating to 90° C. Samples for protein assay were withdrawn before addition of 6×SDS-PAGE sample buffer, and assayed using BCA Protein Assay Kit (Pierce) according to the manufacturers instructions. Equivalent numbers of cells, or equivalent amounts of protein, were electrophoresed on 10% or 15% SDS-PAGE, electrobiotted to Protran membrane (Schleicher&Schuell) using a wet-blot transfer system, blocked for 1 hour at room temperature and probed with primary antibodies overnight at 4° C. […]
Background: In western blotting, separated proteins are transferred to a membrane and probed.

Series [4] relates to p53. As to the kind of experiment: Immunoblotting of p53 and p53 K382Ac. The method, then: as §1, §3
as §2, with “For combined transfection/drug experiments, drugs were applied approximately 20 hours post-transfection. Cells from combined transfection/drug experiments were harvested for analysis after 24 hours of drug exposure (˜48 hours post-transfection).” left out

The test system of series [5] is HCT116 p53+/+ cells. Put plainly: Apoptosis (annexin-V staining, phase contrast). Conditions: 24 h drug exposure. The method, then: (§4) Phase contrast digital images were captured using an Axiovert 200M microscope (Zeiss). Apoptotic cells were identified by flow cytometry using annexin-V-Fluos (Roche) following the manufacturer's protocol.
as §2, with “Cells were harvested for analysis 24h following application of drugs, or at the indicated timepoints for time-course analysis. For combined transfection/drug experiments, drugs were applied approximately 20 hours post-transfection. Cells from combined transfection/drug experiments were harvested for analysis after 24 hours of drug exposure (˜48 hours post-transfection).” left out

In series [6] the test system is ARPE-19 cells. Put plainly: Cell viability / apoptosis (annexin-V staining, phase contrast). To be noted: 24 h drug exposure. How it is done: as §4
as §2, with “Cells were harvested for analysis 24h following application of drugs, or at the indicated timepoints for time-course analysis. For combined transfection/drug experiments, drugs were applied approximately 20 hours post-transfection. Cells from combined transfection/drug experiments were harvested for analysis after 24 hours of drug exposure (˜48 hours post-transfection).” left out

Series [7] concerns exogenous SIRT1 protein. As to the kind of experiment: Exogenous SIRT1 expression after RNAi and cycloheximide time course, immunoblotting. The text has this: FIG. 13 JNK-dependent phosphorylation at S27 stabilises exogenous SIRT1 protein. a. Schematic of experimental protocol for RNA′ followed by transfection with exogenous SIRT1 expression vector (see text). b. Exogenous expression of SIRT1 in intact HCT116 cells (lane 2), JNK2-depleted cells (lane 3) and JNK1-depleted cells (lane 4) detected by immunoblotting. Lane 1 =intact, non-transfected cells. Note that in both intact cells and JNK1-depleted cells the exogenous SIRT1 is phosphorylated on S27 and S47, whereas in JNK2-depleted cells S27P levels reflect endogenous SIRT1 (lanes 1 and 3, asterix), c, d. Time course analyses of SIRT1 protein levels and SIRT1 S27P following addition of cycloheximide in intact (panel c) and JNK2-depleted (panel d) HCT116 cells as indicated. e. SIRT1 protein levels at indicated times post treatment with cycloheximide (CHX) in intact cells (solid circles, solid line) and in JNK-depleted cells (open circles, dashed line).
To further explore the relationship between SIRT1 and JNK2 we expressed exogenous . SIRT1 in HCT116 p53+/+ cells in which JNK2 had been depleted by RNAI (Methods and FIG. 13a). When expressed in intact cells exogenous SIRT1 protein was phosphorylated at both S27 and S47 (FIG. 13b, lane 2). […] In addition total exogenous SIRT1 protein levels were reduced in JNK2-depleted cells (FIG. 13b, lane 3 cp. lane 2, SIRT1), consistent with reduced SIRT1 protein stability in the absence of S27 phosphorylation. […] S47 kinase/phosphatase activity. […] Thus JNK2, but not JNK1, is required for S27 phosphorylation and associated accumulation of SIRT1 protein.
Reduced accumulation of SIRT1 protein under these conditions is consistent with the premise that JNK2-dependent phosphorylation of SIRT1 at S27P stabilises the SIRT1 protein. This was confirmed by time course studies in which exogenous SIRT1 protein levels were monitored following inhibition of protein synthesis by cycloheximide. […] In intact cells exogenous SIRT1 protein was phosphorylated at S27 (FIG. 13c) and was also stable over 9 hr (FIGS. 13c and 13e). However, in JNK2-depleted cells exogenous SIRT1 protein lacked S27P (FIG. 13d) and protein levels declined with a half life of approximately 2 hrs (FIGS. 13d and 13e). We conclude that JNK2 is required, directly or indirectly, for phosphorylation of SIRT1 at S27 and that this is linked with stabilisation of SIRT1 protein in HCT116 cancer cells.

Turning to `O=c1[nH]cc(F)c(=O)[nH]1` [5-FU, 5-fluorouracil], the “depletion of SIRT1 mRNA” value in series [1] (5-FU (375 μM) for 24 h, ARPE-19 and HCT116 cells (FIG. 2a)) was found to be 80%. Also, the “SIRT1 mRNA estimated t1/2” value in series [1] (ARPE-19 cells) is recorded as ~4 h; in series [1] (HCT116 cells), < 2 h. In series [2], the “lamin A/C and GAPDH mRNA levels” value is given as “relatively unaffected”. In addition, the “total SIRT1 protein levels” value in series [3] (ARPE-19 cells) was “increased 6 h after 5-FU treatment and subsequently declined by 24 h”; in series [3] (HCT116 p53+/+ cells), “stable over 12 h, but declined by 24 h post-treatment”; in series [3] (HCT116 p53−/− cells) it was “remains constant up to at least 48 h”. The “SIRT1 S27 phosphorylation” value is on record as “lost” in series [3] (HCT116 p53+/+ cells) and “retained” in series [3] (HCT116 p53−/− cells). Further, in series [4] (ARPE-19 cells), the “acetylation of p53” value is “undetectable”. In addition, the values for the p53 response result in series [4] (ARPE-19 cells) and in series [4] (HCT116 p53+/+ cells) were “attenuated” and “sustained”, respectively. The “p53 K382 acetylation” value in series [4] (HCT116 p53+/+ cells) is recorded as “induction”. In addition, the apoptosis entry in series [5] was “apoptosis”. In addition, the cell viability result in series [6] is on record as “remained viable”.
For “JNK2 siRNA: siRNA: sense 5′-GAGCUGGUGAAAGGUUGUG(dTdT)-3′, antisense 5′-CACAACCUUU CACCAGCUC(dTdT)-3′ (antisense CACAACCUUUCACCAGCUC; RNA, 3' dTdT, backbone not given here)”, in series [1] (ARPE-19 cells, 24-96 h post-transfection), the “SIRT1 mRNA levels” value is “remained constant”. Moreover, the “SIRT1 mRNA levels” value in series [1] (HCT116 p53+/+ cells) was “absence of any reduction”. In series [3] (ARPE-19 cells), the “total SIRT1 protein levels” value is on record as “reduced levels of SIRT1 protein”. Besides, in series [3] (HCT116 p53+/+ cells), the “SIRT1 S27 phosphorylation” value is on record as “loss of SIRT1 S27P”, the “SIRT1 S47P” value is recorded as “barely detectable” and the “total SIRT1 protein levels” value is given as “reduced SIRT1 protein levels”. The “SIRT1 protein levels or phosphorylation status” value in series [3] (HCT116 p53−/− cells) is “little effect”. Also, the “half life of exogenous SIRT1 protein” value in series [7] (HCT116 cells, following addition of cycloheximide) is reported as “approximately 2 hrs”. In series [7] (HCT116 p53+/+ cells), the “S27 phosphorylation of exogenous SIRT1 protein” value is “non-phosphorylated at S27”, the “exogenous SIRT1 S47P” value is recorded as “clearly detectable” and the “total exogenous SIRT1 protein levels” value is given as “reduced”.
Take “JNK1 siRNA: siRNA: sense 5′-CUCCACCACCAAAGAUCCC(dTdT)-3′, antisense 5′-GGGAUCUUUGGUGGUGGAG(dTdT)-3′ (RNA, 3' dTdT, backbone not given here)”: the “SIRT1 protein levels, S27 or S47 phosphorylation” value in series [3] (ARPE-19, HCT116 p53+/+ or HCT116 p53−/− cells) is “no effect”. Moreover, the “total SIRT1 protein levels” value in series [3] (ARPE-19 cells) is given as “no effect”. Besides, in series [7] (HCT116 p53+/+ cells), the “exogenous expression of SIRT1 and its phosphorylation” value is on record as “indistinguishable from the intact controls”.
